The values below come from PMC3626286 (Chemical research in toxicology, 2013).

The subject of data set [1] is rat hepatocytes. To be noted: complete inhibition of acyl glucuronidation; cited from earlier work.
For data set [2] the following is noted: cited from earlier work.
For data set [3], the system named is rat hepatocytes. The following applies: cited from earlier work.
Data set [4] can be described thus: Chemical reactivity with GSH in buffer in the absence of GST. The data set is classed as physicochemical. To be noted: 1 μM, GSH 10 mM, 0.1 M potassium phosphate buffer pH 7.4, 37°C, without GST.
Data set [5] concerns rat hepatocytes. The data set is classed as in vitro ADME. To be noted: for fold decrease in concentration on ice versus 37°C: 0°C versus 37°C; for concentration formed at 60 min / fold decrease in concentration on ice versus 37°C: 60 min.
For data set [6], the system named is equine liver glutathione-S-transferase (GST). The following applies: 1 μM, GSH 10 mM, equine liver GST 30 units/ml, pH 7.4, 37°C.
The nature of data set [7]: Chemical stability in 0.1 M potassium phosphate buffer. The data set is classed as physicochemical. The following applies: for duration of incubation with no detectable hydrolysis: 1 μM, 0.1 M potassium phosphate buffer pH 7.4, 37°C, data not shown; for chemical stability over the 24 h incubation (in words): buffer, physiological conditions.
For data set [8], the system named is equine liver GST. To be noted: after 30 min incubation; cited from earlier work.
Data set [9] deals with rat hepatocytes. The following applies: cited from earlier work. The source holds these as a separate data set.
[10] abbreviates: inhibitor 1 mM co-incubated with MFA.
The mark [11] stands for this setting: MFA 100 μM, rat hepatocytes, 37°C.
Where [12] appears, read: in vitro in physiological buffer.

Several values for one entry are separate records, joined by “and”; a condition that tells them apart may be missing. Equal values may be shown once. Entries after “also recorded” stand apart in the source; their conditions may differ. Read-outs that look alike come from different tables or passages of the source.

For `CC(C(=O)O)c1ccccc1` (centres unmarked) [2-phenylpropionic acid], the “decrease in covalent adduct formation” value in data set [1] is 18.7%.
With `C[C@H](C(=O)O[C@@H]1O[C@H](C(=O)O)[C@@H](O)[C@H](O)[C@H]1O)c1ccccc1` [(S)-2-phenylpropionic-1-β-O-acyl glucuronide], in data set [2], the “half-life of degradation (t1/2)” value was 2.4 h.
`CC1(C)[C@H]2CC[C@]1(C)[C@H](O)C2` [(−)-borneol]: the “decrease in MFA-1-O-G formation” value in [3] (inhibitor 1 mM co-incubated with MFA (10 μM, 10 min)) is given as 91%. In data set [3] (setting [10]), the “inhibition of MFA-GSH formation” value was “no inhibition”.
Regarding `Cc1cccc(Nc2ccccc2C(=O)O[C@@H]2O[C@H](C(=O)O)[C@@H](O)[C@H](O)[C@H]2O)c1C` [MFA-1-O-G, mefenamic acid-1-O-acyl-glucuronide, reference compound], the “transacylation of GSH (rate of MFA-GSH formation)” value (from here on “transacylation of GSH”) in [4] turned out to be 0.02±0.02 nM MFA-GSH/min. The “concentration formed at 60 min” value in [5] (setting [11]) stood at 42200 nM. For the same compound, in data set [5] (rat hepatocytes on ice (0°C)), the “formation on ice (in words)” value is “nearly undetectable; also recorded: no MFA-1-O-G formation”. Moreover, in data set [6], the “reactivity towards GSH (rate of MFA-GSH formation) in the presence of GST” value (from here on “reactivity towards GSH”) is 0.07±0.01 nM MFA-GSH/min. In addition, the “half life of degradation” value in data set [2] (buffer under physiological conditions) was ~ 16 h; in data set [2] (previously reported, also confirmed in the authors' laboratory) it was 16.5 h.
In the case of `Cc1cccc(Nc2ccccc2C(=O)OP(=O)(O)OC[C@H]2O[C@@H](n3cnc4c(N)ncnc43)[C@H](O)[C@@H]2O)c1C` [MFA-AMP, mefenamic acid-acyl-adenylate], in [7], the “duration of incubation with no detectable hydrolysis” value is given as “at least 24 h” and the “chemical stability over the 24 h incubation (in words)” value is “chemically stable”. For the same compound, the “transacylation of GSH” value in data set [4] is given as 0.21±0.02 nM MFA-GSH/min. In [5] (setting [11]), the “fold lower concentration than MFA-GSH” value was found to be 19 fold; the maximum concentration formed is listed as 90.2 nM; the “time of maximum concentration” value was 20 sec and ~ 20 sec. Moreover, in [5] (rat hepatocytes on ice (0°C)), the “concentration at which formation levelled off” value stood at 94.1 nM and the “time to maximum concentration” value is given as 1 min. In addition, the “reactivity towards GSH” value in [6] is listed as 1.25±0.28 nM MFA-GSH/min.
As to `Cc1cccc(Nc2ccccc2C(=O)SCCNC(=O)CCNC(=O)[C@H](O)C(C)(C)COP(=O)(O)OP(=O)(O)OC[C@H]2O[C@@H](n3cnc4c(N)ncnc43)[C@H](O)[C@@H]2OP(=O)(O)O)c1C` [MFA-CoA, mefenamic acid-S-acyl-Coenzyme A], the “duration of incubation with no detectable hydrolysis” value in data set [7] is “at least 24 h”. Also, the “transacylation of GSH” value in data set [4] came to 2.38±0.64 nM MFA-GSH/min. In addition, in data set [5] (setting [11]), the “fold lower concentration than MFA-GSH” value is given as 37 fold, the “time point until which undetectable” value is reported as 4 min and the “concentration formed at 60 min” value is on record as 45.6 nM. Moreover, in [5] (rat hepatocytes on ice (0°C)), the “time point until which undetectable” value is 20 min and 10 min; the “concentration formed at 60 min” value came to 14.1 nM. Besides, the “fold decrease in concentration on ice versus 37°C” value in data set [5] (rat hepatocytes) came to 3.2 fold. Besides, the “reactivity towards GSH” value in [6] was determined as 3.38±0.04 nM MFA-GSH/min.
For `Cc1cccc(Nc2ccccc2C(=O)SC[C@H](NC(=O)CC[C@H](N)C(=O)O)C(=O)NCC(=O)O)c1C` [MFA-GSH, mefenamic acid-S-acyl-glutathione], in [7], the “duration of incubation with no detectable hydrolysis” value was “at least 24 h” and the “chemical stability over the 24 h incubation (in words)” value is “stable”. Besides, the “concentration formed at 60 min” value in [5] (setting [11]) came out at 1700 nM. Further, in data set [5] (rat hepatocytes on ice (0°C)), the “concentration formed at 60 min” value amounted to 83.9 nM. Further, in [5] (rat hepatocytes), the “fold decrease in concentration on ice versus 37°C” value turned out to be 20 fold. The “degradation in the presence of equine liver GST” value in data set [8] is 10–11%. The metabolic half life in data set [9] is ~ 8 min.
Turning to `CC(C)(Oc1ccc(Cl)cc1)C(=O)SCCNC(=O)CCNC(=O)C(O)C(C)(C)COP(=O)(O)OP(=O)(O)OCC1OC(n2cnc3c(N)ncnc32)C(O)C1OP(=O)(O)O` (centres unmarked) [clofibric acid-S-acyl-CoA], in data set [2] (setting [12]), the degradation half life is 504 h and the hydrolysis per day is listed as ~ 2 % hydrolysis/day.
In the case of `CCCCCCCCCCCC(=O)O` [lauric acid], in data set [3] (setting [10]), the “inhibition of MFA-CoA formation” value is reported as 58% and the “inhibition of MFA-GSH formation” value was 66%.
With `CC(C)(COP(=O)(O)OP(=O)(O)OC[C@H]1O[C@@H](n2cnc3c(N)ncnc32)[C@H](O)[C@@H]1OP(=O)(O)O)[C@@H](O)C(=O)NCCC(=O)NCCSC(=O)Cc1ccccc1` [phenylacetyl-S-acyl-CoA], in [2], the “stability after one day of incubation (in words)” value is “completely stable”.
For the compound `Cc1cc(CC(=O)O[C@@H]2O[C@H](C(=O)O)[C@@H](O)[C@H](O)[C@H]2O)n(C)c1C(=O)c1ccc(Cl)cc1` [zomepirac-1-β-O-acyl glucuronide], the “half-life of degradation (t1/2)” value in [2] is 0.45 h.
